Measurements taken from ChEMBL document CHEMBL4507319 (2021).

Experiments:
[1] = molecular target: Mitogen-activated protein kinase 10 (Homo sapiens) (UniProt P53779); details: Compound concentration 1000.0 nM
[2] = molecular target: Protein-tyrosine kinase 2-beta (Homo sapiens) (UniProt Q14289); details: Compound concentration 1000.0 nM
[3] = tested on: Phosphatidylinositol 4,5-bisphosphate 3-kinase catalytic subunit alpha isoform (Homo sapiens), P42336 [Q546K]; details: Compound concentration 1000.0 nM
[4] = molecular target: T1, Serine/threonine-protein kinase Nek9 (Homo sapiens) (UniProt Q8TD19); details: Compound concentration 1000.0 nM
T1 sequence (whole entry): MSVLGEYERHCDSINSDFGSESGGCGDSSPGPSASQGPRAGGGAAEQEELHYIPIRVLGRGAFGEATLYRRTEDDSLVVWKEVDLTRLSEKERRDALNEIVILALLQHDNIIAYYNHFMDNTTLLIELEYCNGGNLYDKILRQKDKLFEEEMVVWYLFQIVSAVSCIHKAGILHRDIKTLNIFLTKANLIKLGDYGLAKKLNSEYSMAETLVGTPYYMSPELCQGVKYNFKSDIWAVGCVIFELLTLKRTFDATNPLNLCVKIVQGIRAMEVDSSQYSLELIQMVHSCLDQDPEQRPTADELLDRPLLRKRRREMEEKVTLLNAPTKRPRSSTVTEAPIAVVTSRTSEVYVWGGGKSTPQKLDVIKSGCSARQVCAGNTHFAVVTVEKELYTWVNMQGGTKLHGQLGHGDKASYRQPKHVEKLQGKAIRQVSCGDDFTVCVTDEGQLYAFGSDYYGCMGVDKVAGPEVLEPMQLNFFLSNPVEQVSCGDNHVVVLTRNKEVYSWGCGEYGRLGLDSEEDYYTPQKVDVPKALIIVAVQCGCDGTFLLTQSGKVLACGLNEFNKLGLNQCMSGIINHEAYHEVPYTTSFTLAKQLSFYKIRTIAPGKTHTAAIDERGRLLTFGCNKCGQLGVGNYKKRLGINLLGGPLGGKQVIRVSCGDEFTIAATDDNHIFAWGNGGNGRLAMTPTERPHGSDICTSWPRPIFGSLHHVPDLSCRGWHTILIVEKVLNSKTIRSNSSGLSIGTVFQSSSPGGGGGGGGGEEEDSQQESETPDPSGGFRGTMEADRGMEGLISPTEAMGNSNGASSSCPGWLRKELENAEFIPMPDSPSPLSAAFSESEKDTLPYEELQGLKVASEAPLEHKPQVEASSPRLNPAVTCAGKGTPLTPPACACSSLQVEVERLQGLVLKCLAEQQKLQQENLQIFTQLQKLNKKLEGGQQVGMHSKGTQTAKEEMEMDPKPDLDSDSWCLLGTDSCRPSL

[5] = molecular target: Phosphorylase b kinase regulatory subunit alpha, liver isoform (Homo sapiens) (UniProt P46019); details: Compound concentration 1000.0 nM
[6] = molecular target: Serine/threonine-protein kinase PRP4 homolog (Homo sapiens) (UniProt Q13523); details: Compound concentration 1000.0 nM
[7] = molecular target: Rho-associated protein kinase 1 (Homo sapiens) (UniProt Q13464); details: Compound concentration 1000.0 nM
[8] = molecular target: T2, Serine/threonine-protein kinase TBK1 (Homo sapiens) (UniProt Q9UHD2); details: Compound concentration 1000.0 nM
T2 sequence (whole entry): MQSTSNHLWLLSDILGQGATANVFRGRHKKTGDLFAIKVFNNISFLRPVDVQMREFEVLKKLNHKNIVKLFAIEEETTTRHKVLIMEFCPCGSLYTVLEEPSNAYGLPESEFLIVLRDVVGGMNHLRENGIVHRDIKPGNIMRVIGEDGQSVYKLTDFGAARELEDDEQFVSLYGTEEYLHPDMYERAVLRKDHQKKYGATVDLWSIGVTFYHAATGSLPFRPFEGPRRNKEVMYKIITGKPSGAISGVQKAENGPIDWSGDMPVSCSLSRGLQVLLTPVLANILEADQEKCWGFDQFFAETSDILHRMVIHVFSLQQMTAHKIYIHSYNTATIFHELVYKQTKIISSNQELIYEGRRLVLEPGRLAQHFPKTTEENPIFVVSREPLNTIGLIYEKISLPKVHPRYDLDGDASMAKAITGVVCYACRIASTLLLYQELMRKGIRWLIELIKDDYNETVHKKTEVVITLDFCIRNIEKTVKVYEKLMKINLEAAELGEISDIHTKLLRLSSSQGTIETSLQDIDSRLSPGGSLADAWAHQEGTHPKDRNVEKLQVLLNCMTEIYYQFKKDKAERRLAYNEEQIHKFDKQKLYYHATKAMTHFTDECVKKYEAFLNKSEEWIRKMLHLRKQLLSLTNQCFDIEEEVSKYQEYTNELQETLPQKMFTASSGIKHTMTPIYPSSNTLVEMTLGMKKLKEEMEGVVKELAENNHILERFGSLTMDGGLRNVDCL

[9] = molecular target: Serine/threonine-protein kinase PAK 5 (Homo sapiens) (UniProt Q9P286); details: Compound concentration 1000.0 nM
[10] = molecular target: cAMP-dependent protein kinase catalytic subunit beta (Homo sapiens) (UniProt P22694); details: Compound concentration 1000.0 nM
[11] = molecular target: Activin receptor type-1-like (Homo sapiens) (UniProt P37023); details: Compound concentration 1000.0 nM
[12] = molecular target: Serine/threonine-protein kinase tousled-like 2 (Homo sapiens) (UniProt Q86UE8); details: Compound concentration 1000.0 nM
[13] = molecular target: STE20/SPS1-related proline-alanine-rich protein kinase (Homo sapiens) (UniProt Q9UEW8); details: Compound concentration 1000.0 nM
[14] = molecular target: Serine/threonine-protein kinase MRCK beta (Homo sapiens) (UniProt Q9Y5S2); details: Compound concentration 1000.0 nM
[15] = molecular target: Casein kinase I isoform alpha-like (Homo sapiens) (UniProt Q8N752); details: Compound concentration 1000.0 nM
[16] = molecular target: Serine/threonine-protein kinase PAK 1 (Homo sapiens) (UniProt Q13153); details: Compound concentration 1000.0 nM
[17] = molecular target: GABA-A receptor; anion channel (Rattus norvegicus) (UniProt O09028+P15431+P18506+P18508+P19969+P20236+P23574+P23576+P28471+P28473+P30191+P62813+P63079+P63138+Q91ZM7+Q9ES14); details: Compound concentration 10.0 uM
[18] = molecular target: LIM domain kinase 1 (Homo sapiens) (UniProt P53667); details: Compound concentration 1000.0 nM
[19] = molecular target: Sodium-dependent noradrenaline transporter (Homo sapiens) (UniProt P23975); details: Compound concentration 10.0 uM
[20] = tested on: Tyrosine-protein kinase ABL1 (Homo sapiens), P00519 [H396P]; details: Compound concentration 1000.0 nM

LIM domain kinase 1 (Homo sapiens), sequence (P53667 whole entry, looked up, the tested form may be a part): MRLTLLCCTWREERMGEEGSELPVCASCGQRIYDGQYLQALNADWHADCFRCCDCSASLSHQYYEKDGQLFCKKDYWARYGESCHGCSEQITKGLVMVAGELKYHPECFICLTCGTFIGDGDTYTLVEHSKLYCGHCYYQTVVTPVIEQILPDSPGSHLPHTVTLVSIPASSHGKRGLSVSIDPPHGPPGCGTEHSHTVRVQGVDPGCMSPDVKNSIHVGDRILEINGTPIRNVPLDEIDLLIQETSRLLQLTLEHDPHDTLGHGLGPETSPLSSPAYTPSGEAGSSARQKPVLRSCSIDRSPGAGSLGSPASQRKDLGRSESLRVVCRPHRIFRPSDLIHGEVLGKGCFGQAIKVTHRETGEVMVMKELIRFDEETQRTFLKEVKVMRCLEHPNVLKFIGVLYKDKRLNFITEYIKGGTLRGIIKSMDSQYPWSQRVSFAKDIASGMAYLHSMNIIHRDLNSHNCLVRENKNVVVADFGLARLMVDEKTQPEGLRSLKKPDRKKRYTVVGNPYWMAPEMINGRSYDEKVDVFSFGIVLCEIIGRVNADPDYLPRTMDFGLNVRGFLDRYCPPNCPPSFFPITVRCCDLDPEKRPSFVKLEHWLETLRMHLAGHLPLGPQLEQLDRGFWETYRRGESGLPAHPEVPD
Serine/threonine-protein kinase PAK 1 (Homo sapiens), sequence (Q13153 whole entry): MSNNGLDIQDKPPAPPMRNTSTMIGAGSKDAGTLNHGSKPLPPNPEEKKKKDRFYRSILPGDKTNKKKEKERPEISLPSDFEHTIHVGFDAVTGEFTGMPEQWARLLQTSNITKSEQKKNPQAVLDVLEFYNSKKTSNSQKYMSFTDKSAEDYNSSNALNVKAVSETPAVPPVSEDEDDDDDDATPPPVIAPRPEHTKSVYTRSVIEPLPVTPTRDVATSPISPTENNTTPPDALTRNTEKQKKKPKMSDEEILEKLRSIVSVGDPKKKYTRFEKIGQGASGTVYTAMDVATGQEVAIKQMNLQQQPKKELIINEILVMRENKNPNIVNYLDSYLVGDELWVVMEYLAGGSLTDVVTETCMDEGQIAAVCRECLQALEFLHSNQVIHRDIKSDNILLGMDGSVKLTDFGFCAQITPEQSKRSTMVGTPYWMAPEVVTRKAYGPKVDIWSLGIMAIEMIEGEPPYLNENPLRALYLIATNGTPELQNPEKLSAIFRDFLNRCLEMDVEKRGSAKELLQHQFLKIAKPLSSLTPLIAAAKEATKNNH
Serine/threonine-protein kinase PRP4 homolog (Homo sapiens), sequence (Q13523 whole entry): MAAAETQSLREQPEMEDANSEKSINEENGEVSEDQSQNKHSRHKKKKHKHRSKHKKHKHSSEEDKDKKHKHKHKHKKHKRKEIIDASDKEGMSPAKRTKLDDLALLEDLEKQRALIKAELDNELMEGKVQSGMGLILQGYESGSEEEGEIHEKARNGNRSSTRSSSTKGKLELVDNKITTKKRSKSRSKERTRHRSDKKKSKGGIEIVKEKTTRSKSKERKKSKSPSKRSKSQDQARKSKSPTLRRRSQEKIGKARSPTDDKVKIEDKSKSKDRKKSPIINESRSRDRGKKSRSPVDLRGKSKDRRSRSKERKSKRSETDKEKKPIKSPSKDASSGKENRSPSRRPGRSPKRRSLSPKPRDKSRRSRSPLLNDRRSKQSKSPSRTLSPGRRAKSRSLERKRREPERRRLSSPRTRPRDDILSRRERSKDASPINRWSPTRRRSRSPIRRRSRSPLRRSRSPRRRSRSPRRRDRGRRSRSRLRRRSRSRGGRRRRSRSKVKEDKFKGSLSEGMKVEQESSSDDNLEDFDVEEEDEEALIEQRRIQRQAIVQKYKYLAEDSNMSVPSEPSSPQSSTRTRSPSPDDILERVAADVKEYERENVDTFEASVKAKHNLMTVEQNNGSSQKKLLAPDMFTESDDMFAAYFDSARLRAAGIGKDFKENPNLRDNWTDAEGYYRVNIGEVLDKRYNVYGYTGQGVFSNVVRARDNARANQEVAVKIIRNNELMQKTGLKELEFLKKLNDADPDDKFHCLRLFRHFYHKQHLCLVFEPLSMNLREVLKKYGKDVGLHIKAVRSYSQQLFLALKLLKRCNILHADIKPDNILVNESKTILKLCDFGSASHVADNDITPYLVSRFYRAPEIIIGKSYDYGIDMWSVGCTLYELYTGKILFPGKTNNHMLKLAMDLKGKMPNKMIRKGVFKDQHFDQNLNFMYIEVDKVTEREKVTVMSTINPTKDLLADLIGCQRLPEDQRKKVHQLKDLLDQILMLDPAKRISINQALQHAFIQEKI
Mitogen-activated protein kinase 10 (Homo sapiens), sequence (P53779 whole entry): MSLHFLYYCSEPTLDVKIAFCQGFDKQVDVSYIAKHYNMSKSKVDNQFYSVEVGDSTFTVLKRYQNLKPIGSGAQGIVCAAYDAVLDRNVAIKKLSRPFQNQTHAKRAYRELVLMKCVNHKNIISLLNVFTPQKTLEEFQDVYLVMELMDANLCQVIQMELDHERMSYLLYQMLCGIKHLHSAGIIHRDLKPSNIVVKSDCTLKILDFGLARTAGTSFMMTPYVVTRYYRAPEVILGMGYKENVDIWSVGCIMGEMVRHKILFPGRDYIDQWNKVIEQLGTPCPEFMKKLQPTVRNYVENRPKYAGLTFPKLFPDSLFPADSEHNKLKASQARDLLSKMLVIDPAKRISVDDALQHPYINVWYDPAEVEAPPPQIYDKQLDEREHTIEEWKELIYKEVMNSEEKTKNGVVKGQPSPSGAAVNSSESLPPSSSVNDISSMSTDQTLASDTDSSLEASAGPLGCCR
Serine/threonine-protein kinase PAK 5 (Homo sapiens), sequence (Q9P286 whole entry, looked up): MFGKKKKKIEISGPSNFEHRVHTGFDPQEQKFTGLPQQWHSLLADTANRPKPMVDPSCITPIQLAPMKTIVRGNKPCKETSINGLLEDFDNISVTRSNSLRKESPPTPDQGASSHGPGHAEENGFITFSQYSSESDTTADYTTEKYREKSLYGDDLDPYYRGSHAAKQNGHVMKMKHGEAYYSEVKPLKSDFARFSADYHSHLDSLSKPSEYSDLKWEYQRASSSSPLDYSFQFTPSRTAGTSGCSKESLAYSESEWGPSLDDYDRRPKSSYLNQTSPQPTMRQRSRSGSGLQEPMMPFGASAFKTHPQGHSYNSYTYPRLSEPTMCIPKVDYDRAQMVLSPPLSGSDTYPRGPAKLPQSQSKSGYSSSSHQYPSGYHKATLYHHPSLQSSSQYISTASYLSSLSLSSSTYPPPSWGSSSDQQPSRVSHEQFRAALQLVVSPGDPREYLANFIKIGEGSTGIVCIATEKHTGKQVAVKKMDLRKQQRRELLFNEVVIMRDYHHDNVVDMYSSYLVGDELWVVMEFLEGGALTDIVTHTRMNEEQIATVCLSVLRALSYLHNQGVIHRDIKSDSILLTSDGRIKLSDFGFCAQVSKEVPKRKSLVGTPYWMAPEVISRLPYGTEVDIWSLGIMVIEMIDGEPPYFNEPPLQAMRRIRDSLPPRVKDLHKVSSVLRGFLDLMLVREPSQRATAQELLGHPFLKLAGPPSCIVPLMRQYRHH
Casein kinase I isoform alpha-like (Homo sapiens), sequence (Q8N752 whole entry, canonical isoform): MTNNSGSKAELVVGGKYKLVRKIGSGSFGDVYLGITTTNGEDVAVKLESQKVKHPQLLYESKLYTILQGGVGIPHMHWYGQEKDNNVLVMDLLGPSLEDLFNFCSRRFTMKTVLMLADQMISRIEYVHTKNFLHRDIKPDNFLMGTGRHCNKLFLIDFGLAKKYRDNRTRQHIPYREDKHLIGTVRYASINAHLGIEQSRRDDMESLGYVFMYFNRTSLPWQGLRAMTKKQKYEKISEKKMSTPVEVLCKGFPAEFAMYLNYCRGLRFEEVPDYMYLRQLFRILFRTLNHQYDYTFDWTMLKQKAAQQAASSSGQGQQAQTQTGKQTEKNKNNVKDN
Phosphorylase b kinase regulatory subunit alpha, liver isoform (Homo sapiens), sequence (P46019 whole entry, canonical isoform): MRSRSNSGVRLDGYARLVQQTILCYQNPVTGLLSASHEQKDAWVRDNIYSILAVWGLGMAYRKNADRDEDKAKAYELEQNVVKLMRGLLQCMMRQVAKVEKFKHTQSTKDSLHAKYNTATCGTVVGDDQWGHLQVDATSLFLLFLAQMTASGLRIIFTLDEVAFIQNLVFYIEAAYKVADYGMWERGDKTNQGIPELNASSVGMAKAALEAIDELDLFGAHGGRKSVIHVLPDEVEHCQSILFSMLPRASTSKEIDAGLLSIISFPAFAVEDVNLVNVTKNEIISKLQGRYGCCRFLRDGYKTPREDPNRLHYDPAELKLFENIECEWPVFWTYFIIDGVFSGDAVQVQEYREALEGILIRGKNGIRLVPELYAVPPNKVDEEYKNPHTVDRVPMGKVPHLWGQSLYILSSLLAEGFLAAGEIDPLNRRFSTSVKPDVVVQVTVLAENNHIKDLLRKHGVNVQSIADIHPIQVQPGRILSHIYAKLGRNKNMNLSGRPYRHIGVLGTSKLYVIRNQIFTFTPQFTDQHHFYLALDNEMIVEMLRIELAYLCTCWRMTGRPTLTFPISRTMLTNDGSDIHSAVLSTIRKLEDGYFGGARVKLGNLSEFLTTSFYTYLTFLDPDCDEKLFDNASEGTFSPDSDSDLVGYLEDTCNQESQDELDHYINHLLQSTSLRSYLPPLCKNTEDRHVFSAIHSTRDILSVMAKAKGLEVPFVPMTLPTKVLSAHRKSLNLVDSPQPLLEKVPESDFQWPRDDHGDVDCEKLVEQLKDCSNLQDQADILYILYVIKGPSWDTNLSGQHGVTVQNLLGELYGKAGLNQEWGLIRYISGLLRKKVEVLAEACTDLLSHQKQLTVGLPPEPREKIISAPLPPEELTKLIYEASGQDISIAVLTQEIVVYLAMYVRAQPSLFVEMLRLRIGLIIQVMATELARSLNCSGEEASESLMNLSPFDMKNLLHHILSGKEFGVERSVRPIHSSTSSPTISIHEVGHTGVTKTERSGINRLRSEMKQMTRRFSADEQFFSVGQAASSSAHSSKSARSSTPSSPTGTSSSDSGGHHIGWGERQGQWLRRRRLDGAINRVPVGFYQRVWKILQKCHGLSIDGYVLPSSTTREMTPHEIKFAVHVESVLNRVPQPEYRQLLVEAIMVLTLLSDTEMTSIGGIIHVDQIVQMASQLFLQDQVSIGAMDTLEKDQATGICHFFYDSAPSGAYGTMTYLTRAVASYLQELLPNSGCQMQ

Compound	residual activity [1]	residual activity [2]	residual activity [3]	residual activity [4]	residual activity [5]	residual activity [6]	residual activity [7]	residual activity [8]	residual activity [9]	residual activity [10]	residual activity [11]	residual activity [12]	residual activity [13]	residual activity [14]	residual activity [15]	residual activity [16]	inhibition [17]	residual activity [18]	inhibition [19]	residual activity [20]
CC1=C(C#N)C(c2ccc3c(c2)c(NC(=O)c2ccccc2C)nn3C)C(C#N)=C(C)N1 [BAY-974]	100%	83%	87%	100%	89%	77%	100%	69%	100%	100%	97%	100%	92%	100%	97%	100%	-0.8%	94%	2.85%	82%
CCc1ccccc1C(=O)Nc1n[nH]c2c(C)c(F)c(C3C(C#N)=C(C)N(C)C(C)=C3C#N)cc12 [BAY-3827]	92%	92%	39%	93%	81%	72%	100%	77%	100%	99%	75%	100%	100%	100%	62%	82%	-7.98%	100%	2.8%	97%
